Test results from ChEMBL document CHEMBL1201862, “PubChem BioAssay data set” (2004).
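Test compounds were applied to cells in 96-well plates for 48 hours at 5 doses. GI50 = concentration required for 50% inhibition of growth.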 Activity calls are given as the source filed them. Cut-off read from the data, not from the text of the source: active = GI50 up to about 1.1 µM and inactive = higher.

Tests used:
Experiment in all cases: NCI anticancer screen, dose series, 48 h
NCI-H23 = tested on: NCI-H23
TK-10 = tested on: TK-10
SNB-19 = tested on: SNB-19
UACC-257 = tested on: UACC-257
NCI-H522 = tested on: NCI-H522
HOP-92 = tested on: HOP-92
MDA-MB-435 = tested on: MDA-MB-435
SK-MEL-28 = tested on: SK-MEL-28
NCI-H226 = tested on: NCI-H226
DU-145 = tested on: DU-145
HCT-116 = tested on: HCT-116
COLO 205 = tested on: COLO 205
SF-268 = tested on: SF-268
CAKI-1 = tested on: CAKI-1
SK-OV-3 = tested on: SK-OV-3
OVCAR-5 = tested on: OVCAR-5
HCT-15 = tested on: HCT-15
BT-549 = tested on: BT-549
OVCAR-8 = tested on: OVCAR-8
SW-620 = tested on: SW-620
SF-295 = tested on: SF-295
MDA-MB-231 = tested on: MDA-MB-231
786-0 = tested on: 786-0
ACHN = tested on: ACHN
A498 = tested on: A498
K562 = tested on: K562
HOP-62 = tested on: HOP-62
HCC 2998 = tested on: HCC 2998
LOX IMVI = tested on: LOX IMVI
KM12 = tested on: KM12
PC-3 = tested on: PC-3
UACC-62 = tested on: UACC-62
SN12C = tested on: SN12C
SNB-75 = tested on: SNB-75
CCRF-CEM = tested on: CCRF-CEM
MOLT-4 = tested on: MOLT-4
OVCAR-4 = tested on: OVCAR-4
NCI/ADR-RES = tested on: NCI/ADR-RES
Hs-578T = tested on: Hs-578T
NCI-H460 = tested on: NCI-H460
SR = tested on: SR
OVCAR-3 = tested on: OVCAR-3
MDA-N = tested on: MDA-N
T47D = tested on: T47D
RPMI-8226 = tested on: RPMI-8226
RXF 393 = tested on: RXF 393
U-251 = tested on: U-251
MCF7 = tested on: MCF7
HT-29 = tested on: HT-29
SF-539 = tested on: SF-539
UO-31 = tested on: UO-31
EKVX = tested on: EKVX
IGROV-1 = tested on: IGROV-1
A549 = tested on: A549
M14 = tested on: M14
SK-MEL-2 = tested on: SK-MEL-2
SK-MEL-5 = tested on: SK-MEL-5
Malme-3M = tested on: Malme-3M

## c1ccc2cc(CNCCCCNCCCNCc3ccc4ccccc4c3)ccc2c1
NCI-H23
  GI50: 1800 nM (inactive)
TK-10
  GI50: 1750 nM (inactive)
SNB-19
  GI50: 1430 nM (inactive)
UACC-257
  GI50: 1880 nM (inactive)
NCI-H522
  GI50: 1140 nM (inactive)
HOP-92
  GI50: 1560 nM (inactive)
MDA-MB-435
  GI50: 1450 nM (inactive)
SK-MEL-28
  GI50: 1690 nM (inactive)
NCI-H226
  GI50: 1170 nM (inactive)
DU-145
  GI50: 1270 nM (inactive)
HCT-116
  GI50: 300 nM (active)
COLO 205
  GI50: 277 nM (active)
SF-268
  GI50: 1410 nM (inactive)
CAKI-1
  GI50: 1810 nM (inactive)
SK-OV-3
  GI50: 1760 nM (inactive)
OVCAR-5
  GI50: 1870 nM (inactive)
HCT-15
  GI50: 824 nM
BT-549
  GI50: 1780 nM (inactive)
OVCAR-8
  GI50: 1690 nM (inactive)
SW-620
  GI50: 324 nM (active)
SF-295
  GI50: 1500 nM (inactive)
MDA-MB-231
  GI50: 1820 nM (inactive)
786-0
  GI50: 423 nM (active)
ACHN
  GI50: 1420 nM (inactive)
A498
  GI50: 1990 nM (inactive)
K562
  GI50: 259 nM (active)
HOP-62
  GI50: 1610 nM (inactive)
HCC 2998
  GI50: 480 nM (active)
LOX IMVI
  GI50: 202 nM (active)
KM12
  GI50: 403 nM (active)
PC-3
  GI50: 1630 nM (inactive)
UACC-62
  GI50: 1750 nM (inactive)
SN12C
  GI50: 733 nM (active)
SNB-75
  GI50: 1500 nM (inactive)
CCRF-CEM
  GI50: 351 nM (active)
MOLT-4
  GI50: 256 nM (active)
OVCAR-4
  GI50: 1600 nM (inactive)
NCI/ADR-RES
  GI50: 1680 nM (inactive)
Hs-578T
  GI50: 167 nM (active)
NCI-H460
  GI50: 188 nM (active)
SR
  GI50: 351 nM (active)
OVCAR-3
  GI50: 1600 nM (inactive)
MDA-N
  GI50: 993 nM (active)
T47D
  GI50: 2770 nM (inactive)
RPMI-8226
  GI50: 226 nM (active)
RXF 393
  GI50: 1490 nM (inactive)
U-251
  GI50: 564 nM (active)
MCF7
  GI50: 548 nM (active)
HT-29
  GI50: 229 nM (active)
SF-539
  GI50: 1690 nM (inactive)
UO-31
  GI50: 1420 nM (inactive)
EKVX
  GI50: 1570 nM (inactive)
IGROV-1
  GI50: 585 nM (active)
A549
  GI50: 1620 nM (inactive)
M14
  GI50: 1330 nM (inactive)
SK-MEL-2
  GI50: 2070 nM (inactive)
SK-MEL-5
  GI50: 2400 nM (inactive)
Malme-3M
  GI50: 1710 nM (inactive)

## CC(C)=CCC[C@@H](C)/C=C/C=C(\C)C(=O)CC[C@@H]1CC[N@+]2(C)CCCC[C@H]12
NCI-H23
  GI50: > 100000 nM (inactive)
TK-10
  GI50: > 100000 nM (inactive)
SNB-19
  GI50: 31300 nM (inactive)
UACC-257
  GI50: > 100000 nM (inactive)
NCI-H522
  GI50: 35000 nM (inactive)
HOP-92
  GI50: 6440 nM (inactive)
MDA-MB-435
  GI50: > 100000 nM (inactive)
SK-MEL-28
  GI50: > 100000 nM (inactive)
NCI-H226
  GI50: 4470 nM (inactive)
DU-145
  GI50: > 100000 nM (inactive)
HCT-116
  GI50: > 100000 nM (inactive)
COLO 205
  GI50: 81300 nM (inactive)
SF-268
  GI50: 71100 nM (inactive)
CAKI-1
  GI50: > 100000 nM (inactive)
OVCAR-5
  GI50: 50400 nM (inactive)
HCT-15
  GI50: > 100000 nM
BT-549
  GI50: 65600 nM (inactive)
OVCAR-8
  GI50: > 100000 nM (inactive)
SW-620
  GI50: > 100000 nM (inactive)
SF-295
  GI50: > 100000 nM (inactive)
MDA-MB-231
  GI50: > 100000 nM (inactive)
786-0
  GI50: > 100000 nM (inactive)
ACHN
  GI50: > 100000 nM (inactive)
A498
  GI50: > 100000 nM (inactive)
K562
  GI50: 49900 nM (inactive)
HOP-62
  GI50: > 100000 nM (inactive)
HCC 2998
  GI50: > 100000 nM (inactive)
LOX IMVI
  GI50: 35200 nM (inactive)
KM12
  GI50: > 100000 nM (inactive)
PC-3
  GI50: 31000 nM (inactive)
UACC-62
  GI50: > 100000 nM (inactive)
SN12C
  GI50: > 100000 nM (inactive)
SNB-75
  GI50: 49200 nM (inactive)
MOLT-4
  GI50: > 100000 nM (inactive)
OVCAR-4
  GI50: > 100000 nM (inactive)
NCI/ADR-RES
  GI50: > 100000 nM (inactive)
Hs-578T
  GI50: 96400 nM (inactive)
NCI-H460
  GI50: > 100000 nM (inactive)
SR
  GI50: > 100000 nM (inactive)
OVCAR-3
  GI50: 32900 nM (inactive)
MDA-N
  GI50: > 100000 nM (inactive)
T47D
  GI50: > 100000 nM (inactive)
RPMI-8226
  GI50: 70000 nM (inactive)
RXF 393
  GI50: 35100 nM (inactive)
U-251
  GI50: 23900 nM (inactive)
MCF7
  GI50: > 100000 nM (inactive)
SF-539
  GI50: > 100000 nM (inactive)
UO-31
  GI50: > 100000 nM (inactive)
EKVX
  GI50: > 100000 nM (inactive)
IGROV-1
  GI50: 55100 nM (inactive)
A549
  GI50: > 100000 nM (inactive)
M14
  GI50: > 100000 nM (inactive)
SK-MEL-2
  GI50: > 100000 nM (inactive)
SK-MEL-5
  GI50: > 100000 nM (inactive)
Malme-3M
  GI50: 79800 nM (inactive)
